Measurements: patent publication US12263248B2, “Compounds and compositions for intracellular delivery of therapeutic agents” (ModernaTX, Inc., priority 2018, dated 2025)

Key:
luciferase (Luc) mRNA [1] = assay: Luc expression in liver, lung, spleen and femur 6 hours after intravenous administration; format: in vivo; settings: mice, 0.5 mpk; for Total Flux Liver / Total Flux Lung / Total Flux Spleen / Total Flux Femur: intravenous
Method in brief: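 LNP-formulated mRNA given IV to mice (n=3) at 0.5 mpk; at 6 h, bioluminescence imaged ex vivo 15 min after IP D-luciferin (15 mg/mL, 200 μL), organs imaged within 25 min. Values are total flux by region of interest.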

[2] = Particle size and polydispersity index of nanoparticle compositions (Zetasizer Nano ZS); format: physicochemical
Method in brief: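 Particle size and PDI were measured on a Zetasizer Nano ZS with the nanoparticle compositions dispersed in 1×PBS.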

luciferase (Luc) mRNA [3] = assay: Luc expression, whole body bioluminescence after intravenous administration to mice; format: in vivo; settings: for Total Flux 3 hours / Total Flux 6 hours / Total Flux 24 hours: i.v., 0.5 mg/kg, Luc mRNA
Method in brief: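 Luc mRNA nanoparticle formulations given intravenously to mice (n=6) at 0.5 mg/kg; whole-body bioluminescence imaged at 3, 6 and 24 h. CD-1 mice received IP D-luciferin (200 μL of 15 mg/mL) 15 min before imaging; total flux quantified by region of interest.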

[4] = Encapsulation efficiency of RNA (QUANT-IT RIBOGREEN RNA assay); format: physicochemical
Method in brief: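 RiboGreen fluorescence (ex ~480, em ~520 nm) compared between intact samples and Triton X-100-lysed samples after 15 min at 37 °C in TE buffer, pH 7.5. Percent free RNA is the blank-corrected intact/disrupted ratio.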

IL-6, IP-10 = assay: Cytokine induction in mice upon intravenous administration; format: in vivo; parameters: Cytokine induction IL-6 / Cytokine induction IP-10: unit not given here; settings: 0.5 mpk, 6 hours; for Cytokine induction IL-6 / Cytokine induction IP-10: intravenous
Method in brief: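 Mice dosed intravenously with nanoparticle compositions at 0.5 mpk; serum cytokine concentrations (IL-6, IP-10) measured at 6 hours. MC3 formulation and PBS controls run alongside.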

[5] = Table 1A, lipid:DSPC:cholesterol:PEG-DMG 50:10:38.5:1.5 mol %
[6] = Table 1B, formulated with hEPO mRNA
[7] = Table 1D, for subcutaneous administration, # formulated with hEPO mRNA
[8] = lipid nanoparticle, ±SD within one assay run (Table 37)
[9] = lipid:DSPC:Chol:PEG-DMG (50:10:38.5:1.5), hEPO mRNA
[10] = nanoparticle composition with hEPO mRNA (Table 30)
[11] = nanoparticle composition with mRNA encoding anti-HA antibody (Table 33)
[12] = nanoparticle of rat tolerability study (Table 43)
[13] = Table 1E, compositions for subcutaneous administration

In the case of `CCCCCCCCCOC(=O)CCCCCCCN(CCCCCCCC(=O)OC(CCCCCCCC)CCCCCCCC)C[C@H](C)O` [Compound 12, Heptadecan-9-yl (S)-8-((2-hydroxypropyl)(8-(nonyloxy)-8-oxooctyl)amino)octanoate], the “Total Flux Liver” value (luciferase (Luc) mRNA [1]) is reported as 6.84E+08, the “Total Flux Lung” value (luciferase (Luc) mRNA [1]) is reported as 7.45E+06 and the “Total Flux Spleen” value (luciferase (Luc) mRNA [1]) is reported as 6.82E+07. The PDI ([2]; Table 1A) was 0.17, the “Size (nm)” value [2, 5] was 116.7 nm and the “Total Flux 3 hours” value (luciferase (Luc) mRNA [3]; mice) was 5.14E+09. The “Total Flux 6 hours” value (luciferase (Luc) mRNA [3]; mice) was 1.27E+10, the “Total Flux 24 hours” value (luciferase (Luc) mRNA [3]; mice) was 2.45E+08 and the “EE (%)” value ([4]; Table 1A) was 92.44%. The IL-6 induction (IL-6, IP-10; i.v., in words) was “lowest”, the IP-10 induction (IL-6, IP-10; i.v., in words) was “lowest” and the “Cytokine induction IL-6” value (IL-6, IP-10) was 3.88. For the same compound, the “Cytokine induction IP-10” value (IL-6, IP-10) was 32.03.

For `CCCCCCCCCOC(=O)CCCCCCCN(CCO)CCCCCCCC(=O)N(CCCCCCCC)CCCCCCCC` [Compound 144, Nonyl 8-((8-(dioctylamino)-8-oxooctyl)(2-hydroxyethyl)amino)octanoate], the “Total Flux Femur” value (luciferase (Luc) mRNA [1]) was 2.44E+06, the “Total Flux Liver” value (luciferase (Luc) mRNA [1]) was 3.75E+08 and the “Total Flux Lung” value (luciferase (Luc) mRNA [1]) was 4.81E+06. For the same compound, the “Total Flux Spleen” value (luciferase (Luc) mRNA [1]) was 5.11E+07, the PDI ([2]; Table 1A) was 0.22 and the “Size (nm)” value [2, 5] was 135.9 nm. The “Total Flux 3 hours” value (luciferase (Luc) mRNA [3]; mice) was 9.50E+09, the “Total Flux 6 hours” value (luciferase (Luc) mRNA [3]; mice) was 1.82E+09 and the “Total Flux 24 hours” value (luciferase (Luc) mRNA [3]; mice) was 3.36E+08. For the same compound, the “EE (%)” value ([4]; Table 1A) was 90.3%, the “Cytokine induction IL-6” value (IL-6, IP-10) was 319.46 and the “Cytokine induction IP-10” value (IL-6, IP-10) was 4220.55.

With `CCCCCCCCCOC(=O)CCCCCCCN(CCO)CCCCCCCC(=O)OC(CCCCCCCC)CCCCCCCC` [Compound 18, Heptadecan-9-yl 8-((2-hydroxyethyl)(8-(nonyloxy)-8-oxooctyl)amino)octanoate] the “Total Flux Femur” value (luciferase (Luc) mRNA [1]) was 4.68E+06, the “Total Flux Liver” value (luciferase (Luc) mRNA [1]) was 2.76E+09 and the “Total Flux Lung” value (luciferase (Luc) mRNA [1]) was 1.25E+07. For the same compound, the “Total Flux Spleen” value (luciferase (Luc) mRNA [1]) was 5.15E+07, the PDI ([2]; Table 1A) was 018 and the “Size (nm)” value [2, 5] was 87.9 nm. For the same compound, the PDI [2, 6] was 0.14, the “Size (nm)” value [2, 6] was 73.7 nm and the PDI [2, 7] was 0.11. The “Size (nm)” value [2, 7] was 75.0 nm, the “PDI (Polydispersity index)” value [2, 8] was 0.04 ± 0.06 and the PDI [2, 9] was 0.095. For the same compound, the PDI [2, 10] was 0.230, the Diameter [2, 11] was 76.8 nm and the PDI [2, 11] was 0.16. The Diameter [2, 12] was 80 nm, the PDI [2, 12] was 0.19 and the “Fold increase in total body Luc Flux relative to MC3 at 6 h” value (luciferase (Luc) mRNA [3]; Table 3A, i.v. administration) was 3.22. The “fold increase in Luc expression over MC3 formulations” value (luciferase (Luc) mRNA [3]; intravenous administration, in words) was “highest fold increase”, the “Fold increase in Luc expression relative to MC3, Intravenous (0.5 mpk dose)” value (luciferase (Luc) mRNA [3]; intravenous, 0.5 mpk) was 3.23 and the “Total Flux 3 hours” value (luciferase (Luc) mRNA [3]; mice) was 1.71E+10. For the same compound, the “Total Flux 6 hours” value (luciferase (Luc) mRNA [3]; mice) was 2.13E+10, the “Total Flux 24 hours” value (luciferase (Luc) mRNA [3]; mice) was 2.51E+09 and the “luciferase activity relative to MC3 LNP control” value (luciferase (Luc) mRNA [3]; mice, intravenous, 0.5 mg/kg (mRNA dose)) was 3 fold. The “Average total flux (6 h, ffluc)” value (luciferase (Luc) mRNA [3]; mice, intravenous, 6 h) was 2.13 × 10^10, the “Fold increase in average total flux relative to MC3” value (luciferase (Luc) mRNA [3]; mice, intravenous, 6 h) was 3.23 and the “EE (%)” value ([4]; Table 1A) was 95.9%. The “EE (%)” value [4, 6] was 96.95%, the “% EE” value [4, 7] was 96.2% and the “% Encapsulation” value [4, 8] was 97.5 ± 0.2%. The EE [4, 9] was 97.34%, the EE [4, 10] was 85.56% and the EE [4, 11] was 79.3%. The “% EE” value [4, 12] was 91%, the IP-10 induction (IL-6, IP-10; i.v., in words) was “lowest” and the “Cytokine induction IL-6” value (IL-6, IP-10) was 78.76. For the same compound, the “Cytokine induction IP-10” value (IL-6, IP-10) was 139.92.

With `CCCCCCCCCN(CCCO)CCCCCCCC(=O)OC(CCCCCCCC)CCCCCCCC` [Compound 7, Heptadecan-9-yl 8-((3-hydroxypropyl)(nonyl)amino)octanoate] the “Flux in the spleen” value (luciferase (Luc) mRNA [1]; i.v., in words) was “highest”, the “Total Flux Liver” value (luciferase (Luc) mRNA [1]) was 2.49E+09 and the “Total Flux Lung” value (luciferase (Luc) mRNA [1]) was 3.95E+07. The “Total Flux Spleen” value (luciferase (Luc) mRNA [1]) was 4.83E+08, the PDI ([2]; Table 1A) was 0.22 and the “Size (nm)” value [2, 5] was 118.9 nm. For the same compound, the “Total Flux 3 hours” value (luciferase (Luc) mRNA [3]; mice) was 4.13E+10, the “Total Flux 6 hours” value (luciferase (Luc) mRNA [3]; mice) was 4.03E+10 and the “Total Flux 24 hours” value (luciferase (Luc) mRNA [3]; mice) was 1.68E+09. The “EE (%)” value ([4]; Table 1A) was 86.10%, the IP-10 induction (IL-6, IP-10; i.v., in words) was “highest” and the “Cytokine induction IL-6” value (IL-6, IP-10) was 116.35. For the same compound, the “Cytokine induction IP-10” value (IL-6, IP-10) was 4959.16.

In the case of `CCCCCCCCCOC(=O)CCCCCCCN(CCO)CCCCCCCCCC(=O)OC(CCCCCCCC)CCCCCCCC` [Compound 23, Heptadecan-9-yl 10-((2-hydroxyethyl)(8-(nonyloxy)-8-oxooctyl)amino) decanoate], the “Total Flux Femur” value (luciferase (Luc) mRNA [1]) is reported as 1.19E+06, the “Total Flux Liver” value (luciferase (Luc) mRNA [1]) is reported as 2.92E+08 and the “Total Flux Lung” value (luciferase (Luc) mRNA [1]) is reported as 1.82E+06. For the same compound, the “Total Flux Spleen” value (luciferase (Luc) mRNA [1]) was 3.08E+07, the PDI ([2]; Table 1A) was 0.09 and the “Size (nm)” value [2, 5] was 104.5 nm. The PDI [2, 13] was 0.13, the “Size (nm)” value [2, 13] was 70.5 nm and the “Total Flux 3 hours” value (luciferase (Luc) mRNA [3]; mice) was 1.83E+09. For the same compound, the “Total Flux 6 hours” value (luciferase (Luc) mRNA [3]; mice) was 1.15E+09, the “Total Flux 24 hours” value (luciferase (Luc) mRNA [3]; mice) was 3.71E+08 and the “EE (%)” value ([4]; Table 1A) was 92.68%. The “% EE” value [4, 13] was 98%, the “Cytokine induction IL-6” value (IL-6, IP-10) was 94.00 and the “Cytokine induction IP-10” value (IL-6, IP-10) was 1015.95.
